Measurements taken from ChEMBL document CHEMBL1143778, “Studies towards the identification of a new generation of atypical antipsychotic agents” (Bioorg Med Chem Lett, 2007).
Where “and” joins values, the source holds several entries; their conditions need not be identical. Equal entries are not always repeated.

Legend:
D(2) dopamine receptor [1] = molecular target: T1, D(2) dopamine receptor (Homo sapiens, UniProt P14416); assay: Displacement of [125I]iodosulpiride from human recombinant dopamine D2 receptor expressed in CHO cells; format: cell-based
[2] = molecular target: T2, 5-hydroxytryptamine receptor 2C (Homo sapiens, UniProt P28335); assay: Displacement of radioligand from human recombinant 5HT2C receptor
T2 sequence (P28335 whole entry): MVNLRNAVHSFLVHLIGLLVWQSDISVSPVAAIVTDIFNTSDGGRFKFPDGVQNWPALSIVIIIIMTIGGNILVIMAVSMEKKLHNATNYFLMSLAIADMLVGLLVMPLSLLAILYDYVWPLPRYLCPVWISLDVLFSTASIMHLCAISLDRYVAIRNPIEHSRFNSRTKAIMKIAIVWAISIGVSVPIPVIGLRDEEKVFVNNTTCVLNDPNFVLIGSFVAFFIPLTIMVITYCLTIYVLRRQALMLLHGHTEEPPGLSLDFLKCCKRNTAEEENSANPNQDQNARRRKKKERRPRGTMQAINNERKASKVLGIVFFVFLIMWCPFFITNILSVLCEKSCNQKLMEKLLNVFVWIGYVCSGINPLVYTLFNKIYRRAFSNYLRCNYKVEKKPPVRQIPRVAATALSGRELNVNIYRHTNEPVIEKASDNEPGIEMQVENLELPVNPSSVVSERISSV

D(3) dopamine receptor [3] = molecular target: T3, D(3) dopamine receptor (Homo sapiens, UniProt P35462); assay: Displacement of [125I]iodosulpiride from human recombinant dopamine D3 receptor expressed in CHO cells; format: cell-based
[4] = molecular target: T4, 5-hydroxytryptamine receptor 2A (Homo sapiens, UniProt P28223); assay: Displacement of radioligand from human recombinant 5HT2A receptor
[5] = molecular target: T5, 5-hydroxytryptamine receptor 6 (Homo sapiens, UniProt P50406); assay: Displacement of radioligand from human recombinant 5HT6 receptor
Cytochrome P450 1A2 = molecular target: T6, Cytochrome P450 1A2 (Homo sapiens, UniProt P05177); assay: Inhibition of CYP1A2; format: ADME
T6 sequence (P05177 whole entry): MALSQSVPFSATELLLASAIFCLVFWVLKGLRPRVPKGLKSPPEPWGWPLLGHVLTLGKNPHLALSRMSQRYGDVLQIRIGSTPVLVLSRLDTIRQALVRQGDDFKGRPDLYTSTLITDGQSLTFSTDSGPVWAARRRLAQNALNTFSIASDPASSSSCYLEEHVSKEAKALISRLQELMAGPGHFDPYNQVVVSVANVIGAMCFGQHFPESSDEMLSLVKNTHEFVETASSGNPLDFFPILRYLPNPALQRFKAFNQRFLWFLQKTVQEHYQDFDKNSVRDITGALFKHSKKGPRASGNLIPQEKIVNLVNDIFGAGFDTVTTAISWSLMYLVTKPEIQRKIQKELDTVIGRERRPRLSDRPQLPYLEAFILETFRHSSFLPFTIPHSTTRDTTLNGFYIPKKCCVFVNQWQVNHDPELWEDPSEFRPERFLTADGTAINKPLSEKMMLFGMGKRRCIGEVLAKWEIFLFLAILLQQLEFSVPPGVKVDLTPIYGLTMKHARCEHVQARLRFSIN

Cytochrome P450 2D6 = Cytochrome P450 2D6 (Homo sapiens, UniProt P10635); assay: Inhibition of CYP2D6; format: ADME
Cytochrome P450 2C19 = Cytochrome P450 2C19 (Homo sapiens, UniProt P33261); assay: Inhibition of CYP2C19; format: ADME
Cytochrome P450 2C9 = Cytochrome P450 2C9 (Homo sapiens, UniProt P11712); assay: Inhibition of CYP2C9; format: ADME
Cytochrome P450 3A4 = Cytochrome P450 3A4 (Homo sapiens, UniProt P08684); assay: Inhibition of CYP3A4; format: ADME
D(3) dopamine receptor [6] = molecular target: T3, D(3) dopamine receptor; assay: Agonist activity at human dopamine D3 receptor by [35S]GTP-gamma-S binding assay; format: functional
D(2) dopamine receptor [7] = molecular target: T1, D(2) dopamine receptor; assay: Agonist activity at human dopamine D2 receptor by [35S]GTPgammaS binding assay; format: functional
[8] = molecular target: T4, 5-hydroxytryptamine receptor 2A; assay: Agonist activity at human 5HT2A receptor by FLIPR assay; format: functional
[9] = molecular target: T2, 5-hydroxytryptamine receptor 2C; assay: Agonist activity at human 5HT2C receptor by FLIPR assay; format: functional
[10] = molecular target: T5, 5-hydroxytryptamine receptor 6; assay: Agonist activity at human 5HT6 receptor by cAMP assay; format: functional
Rattus norvegicus [11] = assay: Toxicity assessed as induction of catalepsy in rat model of extra-pyramidal side effect up to 100 mg/kg, po; format: organism-based; design: dose 100 mg/kg, route oral; conditions: in vivo
Rattus norvegicus [12] = assay: Reversal of amphetamine-induced hyperactivity in orally dosed rat; format: functional; conditions: po

T1 sequence (P14416 whole entry): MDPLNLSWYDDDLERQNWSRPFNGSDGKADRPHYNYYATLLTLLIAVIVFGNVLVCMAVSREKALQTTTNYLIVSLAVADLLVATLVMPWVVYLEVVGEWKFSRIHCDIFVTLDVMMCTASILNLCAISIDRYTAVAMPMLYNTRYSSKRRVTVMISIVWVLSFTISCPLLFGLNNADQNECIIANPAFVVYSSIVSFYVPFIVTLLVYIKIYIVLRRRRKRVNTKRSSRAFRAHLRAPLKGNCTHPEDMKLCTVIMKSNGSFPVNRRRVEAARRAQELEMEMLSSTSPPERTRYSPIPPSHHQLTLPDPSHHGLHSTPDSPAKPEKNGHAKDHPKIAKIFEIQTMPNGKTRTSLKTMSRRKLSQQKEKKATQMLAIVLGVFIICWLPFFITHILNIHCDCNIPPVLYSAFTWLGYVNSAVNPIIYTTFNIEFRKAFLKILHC
T4 sequence (P28223 whole entry): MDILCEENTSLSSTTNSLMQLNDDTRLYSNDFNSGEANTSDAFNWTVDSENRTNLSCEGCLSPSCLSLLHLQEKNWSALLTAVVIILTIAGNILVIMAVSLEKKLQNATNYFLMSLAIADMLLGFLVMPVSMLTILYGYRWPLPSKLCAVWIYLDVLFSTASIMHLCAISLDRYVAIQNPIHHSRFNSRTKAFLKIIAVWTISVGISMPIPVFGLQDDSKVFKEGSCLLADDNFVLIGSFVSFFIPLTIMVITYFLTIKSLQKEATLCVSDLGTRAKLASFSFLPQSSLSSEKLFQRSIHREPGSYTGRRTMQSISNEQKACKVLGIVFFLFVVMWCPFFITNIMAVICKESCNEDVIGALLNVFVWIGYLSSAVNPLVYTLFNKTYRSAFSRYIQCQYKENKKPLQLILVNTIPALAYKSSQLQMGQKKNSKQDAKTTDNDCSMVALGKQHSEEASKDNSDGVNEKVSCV
Sequence of Cytochrome P450 2C9 (P11712 whole entry): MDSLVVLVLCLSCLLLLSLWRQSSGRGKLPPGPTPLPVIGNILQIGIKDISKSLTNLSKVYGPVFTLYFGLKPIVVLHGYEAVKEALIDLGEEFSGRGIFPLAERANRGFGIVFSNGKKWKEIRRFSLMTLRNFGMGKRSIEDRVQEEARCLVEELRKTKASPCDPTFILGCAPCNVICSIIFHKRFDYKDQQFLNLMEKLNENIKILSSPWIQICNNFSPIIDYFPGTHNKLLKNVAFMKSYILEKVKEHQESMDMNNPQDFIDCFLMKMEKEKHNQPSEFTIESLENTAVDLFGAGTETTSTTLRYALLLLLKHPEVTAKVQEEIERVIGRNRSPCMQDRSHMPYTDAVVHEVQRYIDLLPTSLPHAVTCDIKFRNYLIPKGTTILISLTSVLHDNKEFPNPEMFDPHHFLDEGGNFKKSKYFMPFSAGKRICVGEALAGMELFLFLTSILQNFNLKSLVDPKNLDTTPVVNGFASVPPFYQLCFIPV
Sequence of Cytochrome P450 2D6 (P10635 whole entry): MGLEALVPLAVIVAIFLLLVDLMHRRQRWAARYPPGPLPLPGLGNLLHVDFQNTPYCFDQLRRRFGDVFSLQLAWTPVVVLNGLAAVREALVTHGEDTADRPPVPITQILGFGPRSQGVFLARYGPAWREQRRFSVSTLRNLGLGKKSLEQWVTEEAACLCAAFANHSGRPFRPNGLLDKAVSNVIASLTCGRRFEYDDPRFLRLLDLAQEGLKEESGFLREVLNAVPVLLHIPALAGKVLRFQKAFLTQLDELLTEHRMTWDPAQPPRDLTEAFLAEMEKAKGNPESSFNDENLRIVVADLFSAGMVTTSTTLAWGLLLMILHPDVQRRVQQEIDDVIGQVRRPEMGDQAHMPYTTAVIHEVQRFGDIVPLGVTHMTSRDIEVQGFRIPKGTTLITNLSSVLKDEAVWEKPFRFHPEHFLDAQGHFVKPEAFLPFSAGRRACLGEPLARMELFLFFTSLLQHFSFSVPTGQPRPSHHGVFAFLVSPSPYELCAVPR
T3 sequence (P35462 whole entry): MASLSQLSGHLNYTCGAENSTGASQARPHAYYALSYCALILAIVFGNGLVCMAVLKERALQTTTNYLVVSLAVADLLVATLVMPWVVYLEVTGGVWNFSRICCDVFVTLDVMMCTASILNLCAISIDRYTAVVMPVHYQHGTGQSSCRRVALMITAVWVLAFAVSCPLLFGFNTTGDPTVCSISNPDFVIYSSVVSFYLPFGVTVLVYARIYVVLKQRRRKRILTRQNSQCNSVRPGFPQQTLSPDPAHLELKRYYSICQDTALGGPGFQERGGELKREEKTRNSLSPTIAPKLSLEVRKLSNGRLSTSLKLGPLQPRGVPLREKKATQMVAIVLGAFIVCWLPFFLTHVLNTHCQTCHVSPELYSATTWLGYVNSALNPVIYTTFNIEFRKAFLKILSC
Sequence of Cytochrome P450 2C19 (P33261 whole entry): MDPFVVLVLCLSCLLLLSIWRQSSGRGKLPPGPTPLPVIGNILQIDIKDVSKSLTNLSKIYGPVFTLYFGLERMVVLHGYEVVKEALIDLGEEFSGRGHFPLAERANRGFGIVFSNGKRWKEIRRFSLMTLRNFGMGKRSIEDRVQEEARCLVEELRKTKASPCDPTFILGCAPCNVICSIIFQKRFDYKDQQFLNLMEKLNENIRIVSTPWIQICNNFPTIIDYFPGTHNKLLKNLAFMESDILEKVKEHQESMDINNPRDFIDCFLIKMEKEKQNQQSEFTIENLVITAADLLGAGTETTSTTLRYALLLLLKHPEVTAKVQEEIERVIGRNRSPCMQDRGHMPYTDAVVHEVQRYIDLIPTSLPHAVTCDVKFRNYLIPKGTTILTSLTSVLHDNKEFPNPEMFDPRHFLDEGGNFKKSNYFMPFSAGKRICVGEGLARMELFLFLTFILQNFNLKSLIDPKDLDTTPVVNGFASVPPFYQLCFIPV
Sequence of Cytochrome P450 3A4 (P08684 whole entry): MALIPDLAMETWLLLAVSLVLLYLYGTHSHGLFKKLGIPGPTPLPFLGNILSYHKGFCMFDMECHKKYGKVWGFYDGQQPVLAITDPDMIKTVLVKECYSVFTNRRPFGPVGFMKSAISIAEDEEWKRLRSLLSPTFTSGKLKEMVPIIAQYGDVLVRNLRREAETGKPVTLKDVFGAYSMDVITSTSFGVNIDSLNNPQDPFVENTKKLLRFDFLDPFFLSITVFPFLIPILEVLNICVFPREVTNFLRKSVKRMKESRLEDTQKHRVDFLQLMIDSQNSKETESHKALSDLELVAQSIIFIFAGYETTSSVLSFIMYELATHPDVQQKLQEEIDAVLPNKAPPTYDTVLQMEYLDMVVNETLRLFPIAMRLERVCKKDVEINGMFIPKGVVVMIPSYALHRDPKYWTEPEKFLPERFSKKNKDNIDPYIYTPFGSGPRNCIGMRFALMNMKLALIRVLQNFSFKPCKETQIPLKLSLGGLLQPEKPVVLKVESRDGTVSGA
T5 sequence (P50406 whole entry): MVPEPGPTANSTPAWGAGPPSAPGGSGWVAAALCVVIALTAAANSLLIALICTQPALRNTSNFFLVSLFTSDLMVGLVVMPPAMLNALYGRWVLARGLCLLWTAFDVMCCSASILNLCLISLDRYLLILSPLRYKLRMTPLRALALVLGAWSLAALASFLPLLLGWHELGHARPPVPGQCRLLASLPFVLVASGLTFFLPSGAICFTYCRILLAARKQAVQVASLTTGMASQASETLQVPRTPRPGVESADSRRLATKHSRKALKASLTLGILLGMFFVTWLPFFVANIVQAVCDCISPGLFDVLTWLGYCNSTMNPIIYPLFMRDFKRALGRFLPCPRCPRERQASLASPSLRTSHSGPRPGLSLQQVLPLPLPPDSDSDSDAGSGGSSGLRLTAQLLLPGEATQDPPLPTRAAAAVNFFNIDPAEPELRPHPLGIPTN

Structure (SMILES) | Ki (D(2) dopamine receptor [1]) | Ki [2] [nM] | Ki (D(3) dopamine receptor [3]) | Ki [4] [nM] | Ki [5] [nM] | other results
Cc1cc(S(=O)(=O)Nc2ccc3c(c2)CCN(C)CC3)ccc1-c1ccc(Cl)cc1 | 31.6 nM | 50.1 | 6.31 nM | 126 | 5.01 | 
Cc1ccc(-c2ccc(S(=O)(=O)Nc3ccc4c(c3)CCN(C)CC4)cc2)s1 | 316 nM | 12.6 | 25.1 nM | 50.1 | 6.31 | 
Cc1noc(C)c1-c1ccc(S(=O)(=O)Nc2ccc3c(c2)CCN(C)CC3)cc1 | 100 nM | 398 | 15.8 nM | 1260 | 10 | 
COc1cc2c(cc1NS(=O)(=O)c1ccc(-c3ccc(Cl)cc3)cc1)CCN(C)CC2 | 3.98 nM | 39.8 | 0.794 nM | 25.1 | 10 | 
CCCCc1ccc(S(=O)(=O)Nc2ccc3c(c2)CNC3)cc1 | 794 nM |  | 39.8 nM |  | 50.1 | 
CCCCc1ccc(S(=O)(=O)Nc2ccc3c(c2)CN(C)CC3)cc1 | 398 nM |  | 25.1 nM |  |  | 
CCCCc1ccc(S(=O)(=O)Nc2ccc3c(c2)CCN(C)CC3)cc1 | 31.6 nM | 10 | 2 nM | 5.01 | 1.26 | IC50 (Cytochrome P450 1A2): 23000 nM; IC50 (Cytochrome P450 2D6): 1600 nM; IC50 (Cytochrome P450 2C19): 500 nM; IC50 (Cytochrome P450 2C9): 47000 nM; IC50 (Cytochrome P450 3A4): 12000 nM
CC(C)Oc1cc2c(cc1NS(=O)(=O)c1ccc(-c3ccc(Cl)cc3)cc1)CCN(C)CC2 | 6.31 nM | 39.8 | 0.794 nM | 15.8 | 31.6 | 
CC(C)Nc1cc2c(cc1NS(=O)(=O)c1ccc(-c3ccc(Cl)cc3)cc1)CCN(C)CC2 | 50.1 nM | 5.01 | 3.16 nM | 1.58 | 7.94 | EC50 (D(3) dopamine receptor [6]): > 10000 nM; IC50 (Cytochrome P450 1A2): 51000 nM; IC50 (Cytochrome P450 2D6): 19000 nM; EC50 (D(2) dopamine receptor [7]): > 10000 nM; EC50 [8]: > 12600 nM; EC50 [9]: > 12600 nM; EC50 [10]: > 25100 nM; IC50 (Cytochrome P450 2C19): 25000 nM; Activity (Rattus norvegicus [11]): Not Active; IC50 (Cytochrome P450 2C9): 17000 nM; ED50 (Rattus norvegicus [12]): 20.6 mg/kg; IC50 (Cytochrome P450 3A4): 7500 nM
CN1CCc2ccc(NS(=O)(=O)c3ccc(-c4ccc(Cl)cc4)cc3)cc2CC1 | 158 nM | 20 | 15.8 nM | 200 | 5.01 | IC50 (Cytochrome P450 1A2): 25000 nM; IC50 (Cytochrome P450 2D6): 1500 nM; IC50 (Cytochrome P450 2C19): 16000 nM; IC50 (Cytochrome P450 2C9): 45000 nM; IC50 (Cytochrome P450 3A4): 58000 nM
CN1CCc2ccc(NS(=O)(=O)c3ccc(-c4ccc(F)c(Cl)c4)cc3)cc2CC1 | 50.1 nM | 31.6 | 3.98 nM | 50.1 | 7.94 | 
CN1CCc2cc(Br)c(NS(=O)(=O)c3ccc(-c4ccc(Cl)cc4)cc3)cc2CC1 | 63.1 nM | 126 | 5.01 nM |  | 50.1 | 
CN1CCc2ccc(NS(=O)(=O)c3ccc(-c4ccc(C#N)cc4)cc3)cc2CC1 | 501 nM | 100 | 15.8 nM | 794 | 25.1 | 
CN1CCc2cc(Cl)c(NS(=O)(=O)c3ccc(-c4ccc(Cl)cc4)cc3)cc2CC1 | 39.8 nM | 39.8 | 2.51 nM | 31.6 | 50.1 | 
CCCCc1ccc(S(=O)(=O)Nc2ccc3c(c2)CCNCC3)cc1 | 158 nM | 50.1 | 15.8 nM | 15.8 | 2 | 
CCCCc1ccc(S(=O)(=O)Nc2ccc3c(c2)CNCC3)cc1 | 794 nM and 1000 nM | 31.6 | 12.6 nM and 10 nM | 12.6 | 25.1 | Log Ki [2]: -7.5; Log Ki [4]: -7.9; Log Ki [5]: -7.6
CN1CCc2ccc(NS(=O)(=O)c3ccc(-c4ccc(Cl)cc4)s3)cc2CC1 | 398 nM | 126 | 39.8 nM |  | 3.98 | 
CCCCc1ccc(S(=O)(=O)Nc2ccc3c(c2)CN(C)C3)cc1 | 200 nM | 10 | 20 nM | 5.01 | 5.01 | 
Cc1cc2c(cc1NS(=O)(=O)c1ccc(-c3ccc(Cl)cc3)cc1)CCN(C)CC2 | 15.8 nM | 79.4 | 1.58 nM | 20 | 15.8 | 
CC(C)c1cc2c(cc1NS(=O)(=O)c1ccc(-c3ccc(Cl)cc3)cc1)CCN(C)CC2 | 100 nM | 15.8 | 3.98 nM | 5.01 | 12.6 | 
